# Data from patent US8017649B2, “Flavonoid compounds and uses thereof” (Howard Florey Institute of Experimental Physiology and …, priority 2005, dated 2011).
# “Also recorded” adds a separate entry of the source.
# What was measured:
# [1] = test system: endothelium-intact aortic rings treated with pyrogallol; experiment: Vasorelaxation to ACh in the presence of oxidative stress (pyrogallol); assay type: cell-based, rat; conditions: pyrogallol 2×10^−5 M, F3P plus phosphatase; disodium salt
# Procedure: Control cumulative relaxation responses to ACh were compared with those obtained from endothelium-intact aortic rings treated with pyrogallol (2×10^−5 M). The effects of vehicle (0.1% DMSO), phosphatase (1000 U/L) or F3P (10^−6-10^−4 M) on responses to ACh in the rat isolated aortic rings exposed to pyrogallol (2×10^−5 M) were also determined. Pyrogallol was added when the aortic rings had reached a stable level of contraction with PE and U44619 at a level between 50 and 70% of KPSS-induced tension and 10 minutes was allowed before determining the cumulative concentration-response curves to ACh. In some experiments using F3P 1000 U/L phosphatase was used to cleave the phosphate.
# [2] = test system: aortic rings; experiment: Effect on SNP relaxation of precontracted rat aortic rings; assay type: cell-based; conditions: in the presence of BuCHE or phosphatase
# Procedure: (§1) After wash out and re-equilibration for 30 min, the aortic rings were then submaximally precontracted with PE and U46619, which were used to produce an active tension of 45-60% of the KPSS-induced maximum contraction. When investigating the effects of the flavonoids, flavonol, flavone-3-hemiadipate (F3HA), 3′, 4′-dihydroxyflavone, 3′,4′-dihydroxyflavonol, 3′,4′-dihydroxyflavone-3-hemiadipate (DiOHF3HA), and flavone-3-phosphate (F3P) on vasorelaxant responses, rings were incubated with one of the compounds for 20 mins before they were precontracted submaximally, followed by a cumulative-concentration response curve to ACh (100 nM-10 μM) or SNP ([…]). In experiments using F3P 1000U/L phosphatase was used in some experiments to cleave the phosphate. Some experiments were conducted in the presence and absence of butyryl cholinesterase (BuCHE, 1000 U/L) to cleave the adipate in DiOHF3HA and F3HA.
# [3] = test system: superoxide anions generated in rat aorta; experiment: Superoxide anion production in rat isolated aortic segments (lucigenin chemiluminescence, NADPH); assay type: cell-based; conditions: disodium salt
# Procedure: Superoxide anion production in rat isolated aortic segments was determined using lucigenin chemiluminescence. Aortic rings were prepared as described above and then placed in ice-cold Krebs-(N-[2-Hydroxyethyl]piperazine-N′-[2-ethanesulfonic acid] (HEPES buffer) (composition (mM); NaCl 99.0, KCl 4.7, KH2PO4 1.0, MgSO4·7H2O 1.2, D-glucose 11.0, NaHCO3 25.0, CaCl2·2H2O 2.5, Na-HEPES 20.0). Aortic rings were pre-incubated for 45 minutes at 37° C. with a pH 7.4, in Krebs-HEPES buffer containing diethylthiocarbamic acid (DETCA, 10^−3 M) to inactivate superoxide dismutase and β-nicotinamide adenine dinucleotide phosphate (NADPH, 10^−4 M) as a substrate for NADPH oxidase and either 3′,4′-dihydroxyflavonol (10^−4 M) as a positive control, vehicle, 3-hydroxyflavone-3-hemiadipate, 3′,4′-dihydroxy-3-hemiadipate, 3-hydroxyflavone-3-phosphate (10^−8-10^−4 M). Background photon emission was measured for 12 cycles in a 96-well Optiplate containing 0.3 ml per well of Krebs-HEPES buffer together with lucigenin (5×10^−5 M) and vehicle or flavonoid (10^−8-10^−4 M). Each cycle was counted every one minute. After background reading was completed the incubated aortic rings were transferred to the appropriate wells and photon emission was recounted as described above. The tissue was then placed in a 65° C. oven for 48 hours to allow superoxide production to be normalised to dry tissue weight.
# The effects of vehicle, 3′,4′-dihydroxyflavone-3-hemiadipate (21) (DiOHF3HA, 10^−8 M-10^−4 M) and DiOHF (10^−4 M) in the presence and absence of Butyryl cholinesterase (BuCHE), 100, 300 and 1000 U/L) on the level of superoxide anions generated in rat isolated aortic segments in the presence of NADPH was expressed as a percentage of control. The method used was as described above except for the addition of the butyryl cholinesterase.
# The effect of vehicle, 3-hydroxyflavone-3-phosphate (10^−8 to 10^−4 M) in the presence or absence of phosphatase (1000 U/L) on the level of superoxide anions generated in rat aorta in the presence of NADPH expressed as a percentage of control was determined as described above for the 3′,4′-dihydroxyflavone-3-hemiadipate.
# [4] = test system: anaesthetised rats; experiment: Arterial pressure and heart rate in anaesthetised rats after intravenous injection; assay type: in vivo, rat; conditions: intravenous, anaesthetised rats; disodium salt
# Procedure: A unit dosage of an aqueous solution of 3-hydroxyflavone-3-hemiadipate (15) was administered to a group of male anesthetized Sprague Dawley rats intravenously and the blood pressure monitored over a period of time.
# Male Sprague-Dawley rats (250-350 g) were anaesthetised with pentobarbitone sodium (60 mg kg^−1, ip). The trachea was isolated and cannulated with polyethylene tracheal tube (I.D. 2.0 mm), and the rat was allowed to breathe spontaneously.
# The right carotid artery was cannulated and connected with a heparinised saline filled cannula (O.D. 0.75, I.D, 0.58 mm) and connected to a pressure transducer. Mean and phasic arterial pressure were continuously measured and recorded on a polygraph. The heart rate, was derived from the phasic arterial pressure using a tachometer.
# DiOHF3HA ([…]) was injected intravenously, allowing at least 30 min between injections, and the peak changes in mean arterial pressure and heart rate measured. […] In a separate group of experiments ACh (0.3 mg/kg iv) and phenylephrine (PE, […]) were injected before and 30 minutes after DiOHF3HA (3 mg/kg iv), a time when arterial pressure and heart rate had returned to control levels. […]
# [5] = test system: endothelium intact aortic rings; experiment: Effect on ACh relaxation of precontracted rat aortic rings; assay type: cell-based; conditions: for Rmax of ACh relaxation: n=5
# Procedure: as §1
# [6] = test system: endothelium intact aortic rings; experiment: Ca2+-induced contraction of rat aortic rings in Ca2+-free high-K+ solution; assay type: cell-based
# Procedure: To determine the effect of flavonoids on responses to the influx of extracellular Ca^2+, contractile responses to exogenous application of Ca^2+ were examined in the presence of flavonoids in Ca^2+-free high-K^+ solution (60 mM, KPSS). Aortic rings were initially equilibrated at a resting tension of 1 g in normal Ca^2+-free PSS for 45 minutes. The bath medium was then replaced with Ca^2+-free KPSS for 45 minutes to determine a reference contraction to Ca^2+ (3×10^−3 M). Following a 30 minute re-equilibration period with Ca^2+-free PSS, the cumulative contractile responses to Ca^2+ (10^−5−3×10^−3 M) were determined in KPSS in the presence of a range of concentrations (10^−8-10^−4 M) of vehicle, 3′,4′-dihydroxyflavonol, 3-hydroxyflavone-3-hemiadipate, 3′,4′-dihydroxy-3-hemiadipate, 3-hydroxyflavone-3-phosphate. A 20 minute incubation period was allowed for the flavonoids before examining the responses to Ca^2+.
# To determine the effect of flavonoids on responses to the influx of extracellular Ca^2+, contractile responses to exogenous application of Ca^2+ were examined in the presence of flavonoids in Ca^2+-free high-K^+ solution (60 mM, K+-PSS). Aortic rings were initially equilibrated at a resting tension of 1 g in Ca^2+-free PSS for 45 minutes. The bath medium was then replaced with Ca^2+-free K+-PSS for 45 minutes to determine a reference contraction to added Ca^2+ (3 mM). Following a 30 minute re-equilibration period with Ca^2+-free PSS, the cumulative contractile responses to Ca^2+ (10^−5−3×10^−3 M) were determined in K^+ PSS in the presence of vehicle (0.1% DMSO), or a range of concentrations (10^−7-10^−4 M) of 3′-hydroxyflavonol, F3HA, DiOHF3HA or F3P. A 20 minute incubation period was allowed for the flavonoids before examining the responses to Ca^2+. Experiments were conducted in the presence and absence of BuCHE (1000 U/L) to cleave the adipate in F3HA and DiOHF3HA. In experiments using F3P, phosphatase (1000 U/L) was used in some experiments to cleave the phosphate.
structure (smiles),measurement,setting,value
"O=c1c(OP(=O)([O-])[O-])c(-c2ccccc2)oc2ccccc12.[Na+].[Na+] [F3P, 3-Hydroxyflavone-3-phosphate disodium salt]",maximum response to ACh under oxidant stress,[1],the response was restored; also recorded: enhance endothelium-dependent relaxation in the presence of oxidant stress
same,effect on relaxant response to SNP,[2],not SNP
same,effect on superoxide generation,"[3]; in the presence of cleaving enzyme (BuCHE for hemiadipates, phosphatase for phosphate, 1000 U/L)",concentration-dependent inhibition of superoxide levels; also recorded: inhibit superoxide levels produced by rat aorta
same,effect on superoxide generation,"[3]; in the presence of cleaving enzyme (BuCHE for hemiadipates, phosphatase for phosphate, 1000 U/L), listed as flavone-3-phosphate",concentration dependent decrease in the levels of superoxide
same,effect on superoxide generation,"[3]; substance alone, no added esterase/phosphatase, up to 10^−4 M, NADPH",no effect on superoxide generation; also recorded: no antioxidant or vascular activity
same,effect on superoxide generation,"[3]; substance alone, no added esterase/phosphatase, up to 10^−4 M, NADPH, listed as 3-hydroxyflavone-3-phosphate",measurable effect on the superoxide anion generation
same,change in heart rate (HR),[4],dose-dependent decrease in HR; also recorded: only small concentration dependent decreases
same,change in mean arterial pressure (MAP),[4],dose-dependent decreases in MAP; also recorded: only small concentration dependent decreases
same,Rmax of ACh relaxation,[5]; F3P 10^−4 M + phosphatase,100 ± 1
same,Rmax of ACh relaxation,[5]; F3P 10^−5 M + phosphatase,100 ± 1
same,effect on relaxant response to ACh,"[5]; in the presence of phosphatase, disodium salt",enhanced; also recorded: increased the sensitivity of rat aortic rings to relaxation by ACh
same,effect on Ca^2+-induced contraction,"[6]; alone, highest concentration 10^−4 M",partial inhibition of the calcium-induced contraction
same,effect on Ca^2+-induced contraction,"[6]; alone, over the concentration range tested",small inhibition of calcium-induced contraction
same,effect on Ca^2+-induced contraction,"[6]; in the presence of BuCHE or phosphatase (1000 U/L), listed as flavone-3-phosphate, disodium salt",markedly enhanced the inhibitory effects
